This passage reports Kd results from patent US12043632B2, “6-heteroaryloxy benzimidazoles and azabenzimidazoles as JAK2 inhibitors” (Ajax Therapeutics, Inc., priority 2020, dated 2024).

T1 sequence (O60674 849-1124 Y1007F/Y1008F limits assumed): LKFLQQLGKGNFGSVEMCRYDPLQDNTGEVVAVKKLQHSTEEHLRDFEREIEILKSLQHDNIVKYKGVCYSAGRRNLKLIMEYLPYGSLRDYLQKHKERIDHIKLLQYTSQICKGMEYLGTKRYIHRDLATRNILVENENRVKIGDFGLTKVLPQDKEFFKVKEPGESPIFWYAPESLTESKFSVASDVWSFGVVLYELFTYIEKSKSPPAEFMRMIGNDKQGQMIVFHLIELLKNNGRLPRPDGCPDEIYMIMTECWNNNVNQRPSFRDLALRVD

The test addresses T1, JAK2 (JH1domain-catalytic, Y1007F,Y1008F) kinase (Homo sapiens, UniProt O60674, Y1007F/Y1008F).
T1 construct: JAK2 (JH1domain-catalytic, Y1007F,Y1008F) kinase was expressed as N-terminal fusion; made in house; host or cells: transiently transfected HEK293 cells
Description: JAK2 JH1 Domain Binding Assay. Particulars: qPCR readout.
By Kd is commonly meant the concentration at which binding is half-saturated. For `Cn1c(Nc2cc(C(C)(C)C)n([C@H]3CCN(CCF)C3)n2)nc2ncc(Oc3cnn4ccnc4c3)c(Cl)c21` [Example I-25, (S)—N-(5-(tert-butyl)-1-(1-(2-fluoroethyl)pyrrolidin-3-yl)-1H-pyrazol-3-yl)-7-chloro-6-(imidazo[1,2-b]pyridazin-7-yloxy)-1-methyl-1H-imidazo[4,5-b]pyridin-2-amine], the Kd was in the range of 10 to 50 nM. `Cn1c(Nc2cc(C(C)(C)C)n([C@@H]3CCN(CCF)C3)n2)nc2ncc(Oc3cnn4ccnc4c3)c(Cl)c21` [Example I-26, (R)—N-(5-(tert-butyl)-1-(1-(2-fluoroethyl)pyrrolidin-3-yl)-1H-pyrazol-3-yl)-7-chloro-6-(imidazo[1,2-b]pyridazin-7-yloxy)-1-methyl-1H-imidazo[4,5-b]pyridin-2-amine] came in with a dissociation constant (Kd) of 50 to 1000 nM. The result for `CN1CC[C@@H](n2nc(Nc3nc4ncc(Oc5cnc6scnc6c5)c(Cl)c4n3C)cc2C(C)(C)C)C1` [Example I-27, (R)—N-(5-(tert-butyl)-1-(1-methylpyrrolidin-3-yl)-1H-pyrazol-3-yl)-7-chloro-1-methyl-6-(thiazolo[5,4-b]pyridin-6-yloxy)-1H-imidazo[4,5-b]pyridin-2-amine] reads 10 to 50 nM; that for `CN1CC[C@H](n2nc(Nc3nc4ncc(Oc5cnc6scnc6c5)c(Cl)c4n3C)cc2C(C)(C)C)C1` [Example I-28, (S)—N-(5-(tert-butyl)-1-(1-methylpyrrolidin-3-yl)-1H-pyrazol-3-yl)-7-chloro-1-methyl-6-(thiazolo[5,4-b]pyridin-6-yloxy)-1H-imidazo[4,5-b]pyridin-2-amine], 10 to 50 nM; that for `Cn1c(Nc2cc(C(C)(C)C)n([C@H]3CCN(CCF)C3)n2)nc2ncc(Oc3cnn4ccncc34)c(Cl)c21` [Example I-29, (S)—N-(5-(tert-butyl)-1-(1-(2-fluoroethyl)pyrrolidin-3-yl)-1H-pyrazol-3-yl)-7-chloro-1-methyl-6-(pyrazolo[1,5-a]pyrazin-3-yloxy)-1H-imidazo[4,5-b]pyridin-2-amine], < 10 nM. The result for `Cn1c(Nc2cc(C(C)(C)C)n([C@@H]3CCN(CCF)C3)n2)nc2ncc(Oc3cnn4ccncc34)c(Cl)c21` [Example I-30, (R)—N-(5-(tert-butyl)-1-(1-(2-fluoroethyl)pyrrolidin-3-yl)-1H-pyrazol-3-yl)-7-chloro-1-methyl-6-(pyrazolo[1,5-a]pyrazin-3-yloxy)-1H-imidazo[4,5-b]pyridin-2-amine] reads < 10 nM; that for `CN1CC[C@H](n2nc(Nc3nc4ncc(Oc5cnn6ccncc56)c(Cl)c4n3C)cc2C(C)(C)C)C1` [Example I-31, (S)—N-(5-(tert-butyl)-1-(1-methylpyrrolidin-3-yl)-1H-pyrazol-3-yl)-7-chloro-1-methyl-6-(pyrazolo[1,5-a]pyrazin-3-yloxy)-1H-imidazo[4,5-b]pyridin-2-amine], < 10 nM; that for `CN1CC[C@@H](n2nc(Nc3nc4ncc(Oc5cnn6ccncc56)c(Cl)c4n3C)cc2C(C)(C)C)C1` [Example I-32, (R)—N-(5-(tert-butyl)-1-(1-methylpyrrolidin-3-yl)-1H-pyrazol-3-yl)-7-chloro-1-methyl-6-(pyrazolo[1,5-a]pyrazin-3-yloxy)-1H-imidazo[4,5-b]pyridin-2-amine], < 10 nM. The result for `Cn1c(Nc2cc(C(C)(C)C)n(C3CC4(COC4)C3)n2)nc2ncc(Oc3cnn4ccnc4c3)c(Cl)c21` [Example I-33, N-(5-(tert-butyl)-1-(2-oxaspiro[3.3]heptan-6-yl)-1H-pyrazol-3-yl)-7-chloro-6-(imidazo[1,2-b]pyridazin-7-yloxy)-1-methyl-1H-imidazo[4,5-b]pyridin-2-amine] reads 10 to 50 nM; that for `Cn1c(Nc2cc(C(C)(C)C)n(CC(F)F)n2)nc2ncc(Oc3cnn4ccncc34)c(Cl)c21` [Example I-34, N-(5-(tert-butyl)-1-(2,2-difluoroethyl)-1H-pyrazol-3-yl)-7-chloro-1-methyl-6-(pyrazolo[1,5-a]pyrazin-3-yloxy)-1H-imidazo[4,5-b]pyridin-2-amine], < 10 nM; that for `CN1CC[C@H](n2nc(Nc3nc4ncc(Oc5cnn6ccnc6c5)c(Cl)c4n3C)cc2C(C)(C)C)C1` [Example I-35, (S)—N-(5-(tert-butyl)-1-(1-methylpyrrolidin-3-yl)-1H-pyrazol-3-yl)-7-chloro-6-(imidazo[1,2-b]pyridazin-7-yloxy)-1-methyl-1H-imidazo[4,5-b]pyridin-2-amine], 10 to 50 nM. `CN1CC[C@@H](n2nc(Nc3nc4ncc(Oc5cnn6ccnc6c5)c(Cl)c4n3C)cc2C(C)(C)C)C1` [Example I-36, (R)—N-(5-(tert-butyl)-1-(1-methylpyrrolidin-3-yl)-1H-pyrazol-3-yl)-7-chloro-6-(imidazo[1,2-b]pyridazin-7-yloxy)-1-methyl-1H-imidazo[4,5-b]pyridin-2-amine] registered a Kd of 50 to 1000 nM. The figure for `CN1CC[C@H](n2nc(Nc3nc4ncc(Oc5cnc6scnc6c5)c(C(F)F)c4n3C)cc2C(C)(C)C)C1` [Example I-39, (S)—N-(5-(tert-butyl)-1-(1-methylpyrrolidin-3-yl)-1H-pyrazol-3-yl)-7-(difluoromethyl)-1-methyl-6-(thiazolo[5,4-b]pyridin-6-yloxy)-1H-imidazo[4,5-b]pyridin-2-amine] is 10 to 50 nM. The result for `CN1CC[C@@H](n2nc(Nc3nc4ncc(Oc5cnc6scnc6c5)c(C(F)F)c4n3C)cc2C(C)(C)C)C1` [Example I-40, (R)—N-(5-(tert-butyl)-1-(1-methylpyrrolidin-3-yl)-1H-pyrazol-3-yl)-7-(difluoromethyl)-1-methyl-6-(thiazolo[5,4-b]pyridin-6-yloxy)-1H-imidazo[4,5-b]pyridin-2-amine] reads 10 to 50 nM; that for `Cn1c(Nc2cc(C(C)(C)C)n(C3CC4(COC4)C3)n2)nc2ncc(Oc3cnc4ccnn4c3)c(Cl)c21` [Example I-42, N-(5-(tert-butyl)-1-(2-oxaspiro[3.3]heptan-6-yl)-1H-pyrazol-3-yl)-7-chloro-1-methyl-6-(pyrazolo[1,5-a]pyrimidin-6-yloxy)-1H-imidazo[4,5-b]pyridin-2-amine], 10 to 50 nM. The result for `Cn1c(Nc2cc(C(C)(C)C)n([C@H]3CCN(CCF)C3)n2)nc2ncc(Oc3cnn4ccncc34)c(C(F)F)c21` [Example I-43, (S)—N-(5-(tert-butyl)-1-(1-(2-fluoroethyl)pyrrolidin-3-yl)-1H-pyrazol-3-yl)-7-(difluoromethyl)-1-methyl-6-(pyrazolo[1,5-a]pyrazin-3-yloxy)-1H-imidazo[4,5-b]pyridin-2-amine] reads 10 to 50 nM; that for `Cn1c(Nc2cc(C(C)(C)C)n([C@@H]3CCN(CCF)C3)n2)nc2ncc(Oc3cnn4ccncc34)c(C(F)F)c21` [Example I-44, (R)—N-(5-(tert-butyl)-1-(1-(2-fluoroethyl)pyrrolidin-3-yl)-1H-pyrazol-3-yl)-7-(difluoromethyl)-1-methyl-6-(pyrazolo[1,5-a]pyrazin-3-yloxy)-1H-imidazo[4,5-b]pyridin-2-amine], 50 to 1000 nM.

`COc1c(Oc2cnc3sccc3c2)cnc2nc(Nc3cc(C(C)(C)C)n([C@H]4CCN(C)C4)n3)n(C)c12` [Example I-45, (S)—N-(5-(tert-butyl)-1-(1-methylpyrrolidin-3-yl)-1H-pyrazol-3-yl)-7-methoxy-1-methyl-6-(thieno[2,3-b]pyridin-5-yloxy)-1H-imidazo[4,5-b]pyridin-2-amine] displayed a Kd of 10 to 50 nM.

As for `COc1c(Oc2cnc3sccc3c2)cnc2nc(Nc3cc(C(C)(C)C)n([C@@H]4CCN(C)C4)n3)n(C)c12` [Example I-46, (R)—N-(5-(tert-butyl)-1-(1-methylpyrrolidin-3-yl)-1H-pyrazol-3-yl)-7-methoxy-1-methyl-6-(thieno[2,3-b]pyridin-5-yloxy)-1H-imidazo[4,5-b]pyridin-2-amine], the Kd was 50 to 1000 nM. The figure for `Cn1c(Nc2cc(C(C)(C)C)n(C3CC4(COC4)C3)n2)nc2ncc(Oc3cnn4ccncc34)c(Cl)c21` [Example I-49, N-(5-(tert-butyl)-1-(2-oxaspiro[3.3]heptan-6-yl)-1H-pyrazol-3-yl)-7-chloro-1-methyl-6-(pyrazolo[1,5-a]pyrazin-3-yloxy)-1H-imidazo[4,5-b]pyridin-2-amine] is < 10 nM; for `COc1c(Oc2cnn3ccncc23)cnc2nc(Nc3cc(C(C)(C)C)n([C@H]4CCN(CCF)C4)n3)n(C)c12` [Example I-50, (S)—N-(5-(tert-butyl)-1-(1-(2-fluoroethyl)pyrrolidin-3-yl)-1H-pyrazol-3-yl)-7-methoxy-1-methyl-6-(pyrazolo[1,5-a]pyrazin-3-yloxy)-1H-imidazo[4,5-b]pyridin-2-amine] it is 10 to 50 nM; for `COCCN1CC[C@H](n2nc(Nc3nc4ncc(Oc5cnn6ccncc56)c(C(F)F)c4n3C)cc2C(C)(C)C)C1` [Example I-51, (S)—N-(5-(tert-butyl)-1-(1-(2-methoxyethyl)pyrrolidin-3-yl)-1H-pyrazol-3-yl)-7-(difluoromethyl)-1-methyl-6-(pyrazolo[1,5-a]pyrazin-3-yloxy)-1H-imidazo[4,5-b]pyridin-2-amine] it is 10 to 50 nM.

On to `Cn1c(Nc2cc(C(C)(C)C)n(C3CC4(COC4)C3)n2)nc2ncc(Oc3cnn4ccncc34)c(C(F)F)c21` [Example I-53, N-(5-(tert-butyl)-1-(2-oxaspiro[3.3]heptan-6-yl)-1H-pyrazol-3-yl)-7-(difluoromethyl)-1-methyl-6-(pyrazolo[1,5-a]pyrazin-3-yloxy)-1H-imidazo[4,5-b]pyridin-2-amine], for which the Kd was < 10 nM. The figure for `Cn1c(Nc2cc(C(C)(C)C)n(CC#N)n2)nc2ncc(Oc3cnn4ccncc34)c(Cl)c21` [Example I-54, 2-(5-(tert-butyl)-3-((7-chloro-1-methyl-6-(pyrazolo[1,5-a]pyrazin-3-yloxy)-1H-imidazo[4,5-b]pyridin-2-yl)amino)-1H-pyrazol-1-yl)acetonitrile] is 10 to 50 nM. The result for `Cn1c(Nc2cc(C(C)(C)C)n([C@H]3C[C@H](O)C3)n2)nc2ncc(Oc3cnn4ccncc34)c(Cl)c21` [Example I-55, trans-3-(5-(tert-butyl)-3-((7-chloro-1-methyl-6-(pyrazolo[1,5-a]pyrazin-3-yloxy)-1H-imidazo[4,5-b]pyridin-2-yl)amino)-1H-pyrazol-1-yl)cyclobutan-1-ol] reads < 10 nM.
